# Data as given in PubChem BioAssay (NCI).
#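 48-hour exposure; five concentrations; linearly interpolated endpoints. GI50 marks 50% less growth. TGI marks complete inhibition of growth.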
# What was measured:
# Test in all cases: inhibition of tumour cell growth, NCI panel, 48 h
# SN12C renal = test system: SN12C renal
# HOP-62 NSCLC = test system: HOP-62 NSCLC
# NCI-H226 lung = test system: NCI-H226 lung
# MDA-MB-435 = test system: MDA-MB-435
# HT29 colon = test system: HT29 colon
# OVCAR-4 ovarian = test system: OVCAR-4 ovarian
# SK-MEL-5 melanoma = test system: SK-MEL-5 melanoma
# A498 renal = test system: A498 renal
# HOP-92 NSCLC = test system: HOP-92 NSCLC
# IGROV1 ovarian = test system: IGROV1 ovarian
Structure (SMILES),TGI (SN12C renal) [µM],TGI (HOP-62 NSCLC) [µM],TGI (NCI-H226 lung) [µM],TGI (MDA-MB-435) [µM],TGI (HT29 colon) [µM],TGI (OVCAR-4 ovarian) [µM],TGI (SK-MEL-5 melanoma) [µM],TGI (A498 renal) [µM],GI50 (SN12C renal) [µM],GI50 (HOP-92 NSCLC) [µM],TGI (HOP-92 NSCLC) [µM],GI50 (HOP-62 NSCLC) [µM],GI50 (MDA-MB-435) [µM],GI50 (HT29 colon) [µM],GI50 (OVCAR-4 ovarian) [µM],GI50 (SK-MEL-5 melanoma) [µM],GI50 (IGROV1 ovarian) [µM],TGI (IGROV1 ovarian) [µM],GI50 (NCI-H226 lung) [µM],GI50 (A498 renal) [µM]
CCc1ccccc1NC(=O)/C=C/c1ccccc1,> 100,> 100,> 100,> 100,> 100,> 100,> 100,> 100,–,–,–,–,–,–,–,–,–,–,–,–
NS(=O)(=O)c1ccc(N2N=C3c4ccccc4CC3C2c2cccs2)cc1 (configuration not stated),48.9,36.8,–,48.1,> 100,> 100,43.5,–,23.5,25.8,55.8,16.9,19.3,26.1,> 100,18,30,89.9,–,–
COc1ccc2c(c1OC)-c1c(c3ccc([N+](=O)[O-])cc3c(=O)n1CCCBr)C2=O,> 100,58.5,84.3,–,–,–,> 100,> 100,36.2,–,–,21.8,–,–,–,18.1,–,–,26.8,> 100
COC(=O)CCC12CCC(=O)C1[C@@H](C(=O)OC)C[C@H]2C(=O)OC (some centres not stated),> 100,> 100,> 100,–,> 100,> 100,> 100,> 100,–,–,–,–,–,–,–,–,–,> 100,–,–
O=[N+]([O-])c1cccc(-c2nc(-c3ccccc3)c(-c3ccccc3)[nH]2)c1,> 100,> 100,> 100,> 100,–,–,> 100,> 100,–,–,–,–,–,–,–,–,–,> 100,–,–
CCOC(=O)CCC1(C(=O)OCC)CCCC1=O (configuration not stated),> 100,> 100,> 100,–,> 100,> 100,> 100,> 100,–,–,> 100,–,–,–,–,–,–,> 100,–,–
N#C/C(=C\c1cccc(O)c1O)C(N)=O,> 100,> 100,88,–,> 100,> 100,–,> 100,–,–,> 100,–,–,–,–,–,–,> 100,–,–
CN(C)/C=N\c1ccnc(=O)[nH]1,> 100,> 100,> 100,–,> 100,> 100,> 100,> 100,–,–,> 100,–,–,–,–,–,–,> 100,–,–
CC1(c2cc3c(cc2Br)OCO3)SCCCS1,> 100,> 100,> 100,–,> 100,> 100,51,> 100,–,–,51.7,–,–,–,–,–,–,> 100,–,–
COc1ccc(OC(C(=O)O)C(C)C)c2c1CCCC2=O (configuration not stated),> 100,> 100,–,–,> 100,> 100,> 100,> 100,–,–,–,–,–,–,–,–,–,> 100,–,–
Cc1c2c(cc3c1C(=O)C(=O)C1=C3OC[C@@H]1C)C(C)(C)CCC2,34.6,36.4,–,–,32.5,51.8,26.1,59.6,–,–,61.2,–,–,–,–,–,–,49.8,–,–
CNNC(=N\S(=O)(=O)c1cc(C)c(Cl)cc1SCc1ccccc1)/N=C/c1ccc([N+](=O)[O-])s1,> 100,> 100,–,> 100,> 100,> 100,> 37.3,–,> 100,10.9,> 83.8,> 100,18.5,27.4,> 100,1.48,> 100,> 100,–,–
C#CCNC(=O)ON1C(=O)CCC1=O,> 100,> 100,–,–,> 100,> 100,–,> 100,–,–,–,–,–,–,–,–,–,> 100,–,–
COc1ccc(NC(=O)/C=C(C)/C=C/C=C(C)/C=C/C2=C(C)CCCC2(C)C)cc1,23.9,34.1,6.7,19.1,10.2,19,21.1,34.5,11.2,–,–,18.2,5.47,3.22,5.85,9.06,–,–,2.83,19.9
Cc1cc(C)nc(/C(=N\NC(N)=O)C(=O)Nc2nc3ccc(C)cc3s2)c1,> 100,> 100,> 100,–,> 100,> 100,> 100,> 100,–,–,> 100,–,–,–,–,–,–,> 100,–,–
COc1ccc(-c2cc(C(=O)Nc3cc(C(F)(F)F)cc(C(F)(F)F)c3)c3ccccc3n2)cc1,25.1,30.3,46.9,–,36.1,> 100,34.6,40,–,–,–,–,–,–,–,–,–,44.9,–,–
O=c1nc(-c2ccccc2)cc(CC(O)c2ccc(Cl)c(Cl)c2)[nH]1 (configuration not stated),> 100,> 100,> 100,–,> 100,> 100,> 100,77.2,–,–,> 100,–,–,–,–,–,–,> 100,–,–
Cl/C(N=Nc1ccccc1)=N/Nc1ccccc1,> 100,> 100,> 100,–,> 100,> 100,–,> 100,–,–,> 100,–,–,–,–,–,–,> 100,–,–
[O-]c1ccccc1C=Nc1ccc2c(c1)CCC2.[O-]c1ccccc1C=Nc1ccc2c(c1)CCC2.[O]=[U+2]=[O],> 100,> 100,> 100,–,> 100,> 100,> 100,> 100,> 100,–,–,> 100,–,> 100,> 100,60.8,41,> 100,> 100,> 100
Cc1cccc2c1c1ccc3c(c1n2C)C(=O)C=CC3=O,12.8,37.8,32.8,–,14,24.3,29.6,44.5,–,–,4.34,–,–,–,–,–,–,32.5,–,–
CNc1ccc2ncccc2c1[N+](=O)[O-],> 100,> 100,> 100,–,> 100,> 100,> 100,> 100,–,–,> 100,–,–,–,–,–,–,> 100,–,–
COC(=O)C1C(=O)CC2CCCCC21 (configuration not stated),> 100,> 100,> 100,–,–,> 100,> 100,> 100,–,–,–,–,–,–,–,–,–,> 100,–,–
